Source: patent US12458818B2, “Anti-trophoblast cell surface antigen 2 (TROP2) antibodies and antibody drug conjugates comprising same” (CSPC MEGALITH BIOPHARMACEUTICAL CO., LTD., priority 2019, dated 2025)

Assays:
BxPC-3 = experiment: In vitro cytotoxicity assay, BxPC-3; format: cell-based; details: BxPC-3 human pancreatic adenocarcinoma cell line
Procedure: (§1) DP002-HC1LC1-ADC is an antibody-drug conjugate comprising anti-TROP antibody DP002-HC1LC1, which comprises HCl (SEQ ID NO: 52) and LC 1 (SEQ ID NO: 58), conjugated to monomethyl auristatin E (MMAE) at a drug-antibody ratio (DAR) of 2. A DP002-HC1LC1-ADC was prepared using a conjugation method described in WO 2015/191883. A series of in vitro cytotoxicity assays were performed to assess the ability of DP002-HC1LC1-ADC to inhibit the growth of the following TROP2 expressing cancer cell lines: HCC1954 (a human breast carcinoma cell line), BxPC-3 (a human pancreatic adenocarcinoma cell line), and NCI-N87 (a human gastric carcinoma cell line). Experiments using staurospirone, a positive apoptosis control, and anti-TROP2 antibody DP002-HC4LC5, which comprises HC4 (SEQ ID NO: 55) and LC5 (SEQ ID NO: 62), were performed in parallel.

MDA-MB-468 = experiment: In vitro cytotoxicity assay, MDA-MB-468; format: cell-based; details: MDA-MB-468 TROP2+ human breast adenocarcinoma cell line
Procedure: (§2) Additional in vitro cytotoxicity assays were performed to test the ability of DP002-HC1LC1-ADC to inhibit the growth of MDA-MB-468 (a TROP2^+ human breast adenocarcinoma cell line) and HCC38 (a TROP2^+ human mammary ductal carcinoma cell line).

HCC38 = experiment: In vitro cytotoxicity assay, HCC38; format: cell-based; details: HCC38 TROP2+ human mammary ductal carcinoma cell line
Procedure: as §2

HCC1954 = experiment: In vitro cytotoxicity assay, HCC1954; format: cell-based; details: HCC1954 human breast carcinoma cell line
Procedure: as §1

NCI-N87 = experiment: In vitro cytotoxicity assay, NCI-N87; format: cell-based; details: NCI-N87 human gastric carcinoma cell line
Procedure: as §1

human TROP2 = biological target: T1, human TROP2 (Homo sapiens, UniProt P09758); experiment: Surface plasmon resonance kinetics and affinities (Table 8B); format: binding; details: SPR, analyte TROP2
T1 sequence (P09758 27-323): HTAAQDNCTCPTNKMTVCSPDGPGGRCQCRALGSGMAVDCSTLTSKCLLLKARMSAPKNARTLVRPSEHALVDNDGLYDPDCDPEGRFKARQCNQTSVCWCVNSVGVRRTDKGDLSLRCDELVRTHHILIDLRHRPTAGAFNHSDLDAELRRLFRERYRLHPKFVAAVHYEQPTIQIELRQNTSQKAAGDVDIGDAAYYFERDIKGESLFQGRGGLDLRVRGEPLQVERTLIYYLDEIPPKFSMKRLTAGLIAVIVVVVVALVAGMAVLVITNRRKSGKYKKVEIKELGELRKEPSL
Procedure: Surface plasmon resonance (SPR) experiments were performed to determine the kinetics and affinities of certain antibodies shown in Table 8A.

SKBR3 cells = experiment: FACS internalization of anti-TROP2 antibodies by SKBR3 cells; format: cell-based, human; details: 20 nM antibody mixed with 60 nM pHAb-labelled secondary antibody, overnight incubation
Procedure: FACS experiments were performed to verify that antibodies 1B3, 15D9, 15A10, 17B6, and 17D1 were internalized by SKBR3 cells. SKBR3 is a TROP2-expressing human breast carcinoma cell line. Briefly, 1.2×10^5 SKBR3 cells were seeded into each 12-well plates and cultured overnight. 300 μL of 20 nM control antibody, 1B3, 15D9, 15A10, 17B6, or 17D1 (in DMEM-10) were mixed with 300 μL 60 nM pHAb-labelled secondary antibody for 15 minutes at room temperature in the dark. The labeled antibodies mixtures were added to the SKBR3 cells and incubated overnight. Following overnight incubation, the SKBR3 cells were trypsinized, washed twice with 1% BSA/PBS, and analyzed via flow cytometry.

In the case of `CN[C@@H]1C[C@H]2O[C@@](C)([C@@H]1OC)n1c3ccccc3c3c4c(c5c6ccccc6n2c5c31)C(=O)NC4` [Staurosprione, staurospirone], the IC50 (BxPC-3) is reported as 5.37 nM, the Max % inhibition (BxPC-3) is reported as 98.02% and the Max % inhibition (BxPC-3; listed as staurospirone) is reported as “greater than 93%”. It also gave an IC50 (MDA-MB-468) of 14.7 nM, a Max % inhibition (MDA-MB-468) of 92.38% and an IC50 (HCC38) of 4.26 nM. For the same molecule, the Max % inhibition (HCC38) was 99.44%, the IC50 (HCC1954) was 21.7 nM and the Max % inhibition (HCC1954) was 95.12%. For the same molecule, the Max % inhibition (HCC1954; listed as staurospirone) was “greater than 93%”, the IC50 (NCI-N87) was 9.31 nM and the Max % inhibition (NCI-N87) was 93.44%. For the same molecule, the Max % inhibition (NCI-N87; listed as staurospirone) was “greater than 93%”.

With “Control: biosimilar of the anti-TROP2 antibody sacituzumab [reference compound]” the Kd (human TROP2) was 0.4 nM, the Rmax (human TROP2) was 50.7 and the “ka” value (human TROP2) was 511000 M⁻¹ s⁻¹. The “kd” value (human TROP2) was 0.000204 s⁻¹.

B1: 1B3: mouse anti-human TROP2 antibody, VH SEQ ID NO: 22, VL SEQ ID NO: 27 (antibody, V domains shown)
VH: QVQLQQSGAELVRPGVSVKISCKGSGYTFTDYSINWVKQSHAKSLEWIGVISTYYGDASYNQKFKGKATMTVDKSSSTAYMELARLTSEDSAIYYCARYGDGYNQFDYWGQGTTLTVSS
VL: DIVLTQSPASLAVSLGQRATISCRVSESVDSYGNNFMHWYQQKPGQPPKLLIYRASNLESGVPARFSGSGSGTDFTLTINPMEADDVATYYCQQSYEDPYTFGGGTKLEIK
For B1, the “internalization by SKBR3 cells (flow cytometry)” value (shortened to “internalization by SKBR3 cells”) (SKBR3 cells) was “internalized”.

B2: 17B6: mouse anti-human TROP2 antibody, VH SEQ ID NO: 26, VL SEQ ID NO: 31 (antibody, V domains shown)
VH: QVQLQQSGAELVRPGVSVKISCKGSGYTFTDYGMNWVKQSHAKSLEWIGVISTFYGDANYNQKFKGKATMTVDKSSSTAYMELARLTSEDSAIYYCARRGNYDSMDYWGQGTSVTVSS
VL: DIVLTQSPVFLAVSLGQRATISCRASESVDSYGNSFMHWYQQKPGQPPKLLIYRASNLESGIPARFSGSGSRTDFTLTINPVEADDVETYYCQQSYEDPPTFGGGTKLEIE
For B2, the “internalization by SKBR3 cells” value (SKBR3 cells) was “internalized”.

B3: 15D9: mouse anti-human TROP2 antibody, VH SEQ ID NO: 24, VL SEQ ID NO: 29 (antibody, V domains shown)
VH: QVQLQQSGAELVRPGVSVKISCKGSGYTFTDYSIHWVKQSHAKSLEWIGVISSYYGDATYNQKFKGKATMTVDKSSSTAYMELARLTSEDSAIYYCALLGAYNYFDYWGQGTTLTVSS
VL: DIVLTQSPASLAVSLGQRATISCRASESVDSYGNSFMHWYQQKPGQPPKLLVYRASNLESGIPARFSGSGSRTDFTLTINPVEADDVATYYCQQSYEDPPTFGGGTKLEIK
In the case of B3, the “internalization by SKBR3 cells” value (SKBR3 cells) is reported as “internalized”.

B4: 15A10: mouse anti-human TROP2 antibody, VH SEQ ID NO: 23, VL SEQ ID NO: 28 (antibody, V domains shown)
VH: EVQLEQSGPGLVQPSQSLSITCTVSGFSLTRYGVHWVRQSPGRSLEWLGVIWSGGNTDYNAAFISRLTITKDNSKSQVFFKMNSLQPNDTGVYYCAREDRYVGEFAYWGQGTLVTVSA
VL: DIVLTQSTASLAVSLGQRATISCRASESVDSYGNSFIHWYQQKPGQPPKLLIYRASNLESGIPARFSGSGSRTDFTLTINPVEADDVATYYCQQSNEDPRTFGGGTKLEIK
B4 was tested, and the “internalization by SKBR3 cells” value (SKBR3 cells) was “internalized”.

B5: 17D1: mouse anti-human TROP2 antibody, VH SEQ ID NO: 25, VL SEQ ID NO: 30 (antibody, V domains shown)
VH: QVQLQQSGAELVRPGVSVKISCKGSGYTFTDYSIHWVKQSHAKSLEWIGLISTYYGDATYTQKFKGKATMTVDKSSSTAYMELARLTSEDSAIYYCALLGAYNYFDYWGQGTTLTVSS
VL: DIVLTQSPASLAVSLGQRATISCRASESVDSYGNSFMHWYQQKPGQPPKLLVYRASNLESGIPARFSGSGSRTDFTLTINPVEADDIATYYCQQSYEDPPTFGGGTKLEIK
With B5 the “internalization by SKBR3 cells” value (SKBR3 cells) was “internalized”.
